Source: ChEMBL document CHEMBL5512654, “Discovery of novel Thymol-TPP antibiotics that eradicate MRSA persisters” (Eur J Med Chem, 2024)
The source made the active and inactive calls. The calls are words filed in the database; no cut-off is given here.

How the values were obtained:
[1] = tested on: Cell membrane; assay: Induction of cell membrane damage in methicillin-resistant Staphylococcus aureus USA 3390 assessed as increase in fluorescence intensity at 1 to 8 times of MIC concentration measured at 5 mins by SYTOX green assay; type: cell membranes
[2] = tested on: Staphylococcus aureus; assay: Bactericidal activity against methicillin-resistant Staphylococcus aureus USA 3390 assessed as reduction in CFU at 2 times of MIC concentration measured upto 4 hrs by time-kill kinetics assay; type: functional
[3] = tested on: Pseudomonas aeruginosa; assay: Antibacterial activity against Pseudomonas aeruginosa ATCC 27853 assessed as inhibition of bacterial growth measured after 18 hrs by microplate reader; type: functional; settings: read-out: MIC100
[4] = tested on: Staphylococcus aureus; assay: In vivo antibacterial efficacy in bioluminescent Staphylococcus aureus Xen29 infected in mouse topical infection model assessed as reduction in number of colonies at 8 mg/kg, sc treated 16, 24, 36, 48, […] hrs post-infection measured after 84 hrs relative to control; type: functional
[5] = tested on: Cell membrane; assay: Induction of cell membrane depolarization of methicillin-resistant Staphylococcus aureus USA 3390 persisters assessed as increase in fluorescence intensity at 4 to 8 ug/ml measured at 10 mins by SYTOX green assay relative to control; type: cell membranes; settings: dose 4-8 µg/ml
[6] = tested on: Cell membrane; assay: Induction of cell membrane depolarization in methicillin-resistant Staphylococcus aureus USA 3390 assessed as increase in fluorescence intensity at 1 to 8 times of MIC concentration measured upto 60 mins by DiSC3-5 dye based fluorescence analysis; type: cell membranes
[7] = tested on: Escherichia coli; assay: Antibacterial activity against Escherichia coli 53328 assessed as inhibition of bacterial growth measured after 18 hrs by microplate reader; type: functional; settings: read-out: MIC100
[8] = tested on: Cell membrane; assay: Induction of cell membrane damage in methicillin-resistant Staphylococcus aureus USA 3390 assessed as increase in fluorescence intensity at 1 to 8 times of MIC concentration measured upto 120 mins by SYTOX green assay relative to control; type: cell membranes
[9] = tested on: Staphylococcus aureus; assay: Induction of cell membrane permeability in methicillin-resistant Staphylococcus aureus USA 3390 assessed as increase in leakage of 260 nm absorbing material at 1 to 8 times of MIC; type: functional, organism-based; settings: time <= 6.0 hrs, TDE = time-dependent effect
[10] = tested on: Staphylococcus aureus; assay: Induction of cell membrane permeability in methicillin-resistant Staphylococcus aureus USA 3390 assessed as increase in leakage of 260 nm absorbing material at measured upto 6 hrs; type: functional, organism-based
[11] = tested on: Cell membrane; assay: Induction of cell membrane permeability of methicillin-resistant Staphylococcus aureus USA 3390 persisters assessed as increase in fluorescence intensity at 4 to 8 ug/ml measured at 30 mins by SYTOX green assay relative to control; type: cell membranes; settings: dose 4-8 µg/ml
[12] = tested on: Klebsiella pneumoniae; assay: Antibacterial activity against Klebsiella pneumonia ATCC 700603 assessed as inhibition of bacterial growth measured after 18 hrs by microplate reader; type: functional; settings: read-out: MIC100
[13] = tested on: Pseudomonas aeruginosa; assay: Antibacterial activity against Pseudomonas aeruginosa 535 assessed as inhibition of bacterial growth measured after 18 hrs by microplate reader; type: functional; settings: read-out: MIC100
[14] = tested on: Staphylococcus aureus; assay: Antibacterial activity against methicillin-resistant Staphylococcus aureus USA 3390 assessed as eradication of persistence by measuring rapid killing effect 8 times of MIC concentration measured upto 7 hrs; type: functional, organism-based
[15] = tested on: Staphylococcus aureus; assay: Drug resistance, ratio of MIC for methicillin-resistant Staphylococcus aureus USA 3390 after […] exposure to MIC for methicillin-resistant Staphylococcus aureus USA 3390 after first exposure; type: functional
[16] = Cytotoxicity against human L02 cells incubated for 72 hrs by MTT dye reduction assay; type: toxicity, cell-based
[17] = tested on: Staphylococcus aureus; assay: Antibacterial activity against methicillin-resistant Staphylococcus aureus USA 3390 assessed as eradication of persistence by measuring rapid killing effect 8 times of MIC concentration relative to control; type: functional
[18] = tested on: Acinetobacter baumannii; assay: Antibacterial activity against Acinetobacter baumannii ATCC 19606 assessed as inhibition of bacterial growth measured after 18 hrs by microplate reader; type: functional; settings: read-out: MIC100
[19] = tested on: Escherichia coli; assay: Antibacterial activity against Escherichia coli ATCC 25922 assessed as inhibition of bacterial growth measured after 18 hrs by microplate reader; type: functional; settings: read-out: MIC100
[20] = tested on: Staphylococcus aureus; assay: Induction of cell membrane permeability in methicillin-resistant Staphylococcus aureus USA 3390 assessed as increase absorption in leakage of 260 nm absorbing material at 1 to 8 times of MIC measured at 4 hrs; type: functional, organism-based
[21] = tested on: Klebsiella pneumoniae; assay: Antibacterial activity against Klebsiella pneumonia 3026 assessed as inhibition of bacterial growth measured after 18 hrs by microplate reader; type: functional; settings: read-out: MIC100
[22] = tested on: Staphylococcus aureus; assay: Bactericidal activity against methicillin-resistant Staphylococcus aureus USA 3390 assessed as reduction in CFU at 1 times of MIC concentration measured for short time by time-kill kinetics assay; type: functional, organism-based
[23] = tested on: Staphylococcus aureus; assay: Bactericidal activity against methicillin-resistant Staphylococcus aureus USA 3390 assessed as reduction in CFU at 4 to 8 times of MIC concentration measured after 24 hrs by time-kill kinetics assay; type: functional, organism-based
[24] = tested on: Staphylococcus aureus; assay: In vivo antibacterial efficacy in bioluminescent Staphylococcus aureus Xen29 infected in mouse topical infection model assessed as wound scabbing at 8 mg/kg, sc treated 16, 24, 36, 48, […] hrs post-infection measured after 84 hrs; type: functional, organism-based
[25] = tested on: Staphylococcus aureus; assay: Antibacterial activity against methicillin-resistant Staphylococcus aureus USA 3390 assessed as eradication of persistence by measuring rapid killing effect 4 times of MIC concentration measured upto 7 hrs; type: functional, organism-based
[26] = tested on: Cell membrane; assay: Induction of plasma membrane damage in methicillin-resistant Staphylococcus aureus USA 3390 at logarithmic growth phase at 4 times of MIC measured after 1 hr by Scanning electron micrographic analysis; type: cell membranes
[27] = tested on: Staphylococcus aureus; assay: Bactericidal activity against methicillin-resistant Staphylococcus aureus USA 3390 assessed as reduction in CFU at 2 times of MIC concentration measured after 24 hrs by time-kill kinetics assay; type: functional, organism-based
[28] = tested on: Staphylococcus aureus; assay: Antibacterial activity against methicillin-resistant Staphylococcus aureus USA 3390 assessed as eradication of persistence by measuring rapid killing effect 4 times of MIC concentration relative to control; type: functional
[29] = Toxicity in mouse infected with bioluminescent Staphylococcus aureus Xen29 assessed as change in body weight at 8 mg/kg, sc treated 16, 24, 36, 48, […] and 72 hrs post-infection measured after 84 hrs; type: organism-based; settings: in vivo
[30] = tested on: Staphylococcus aureus; assay: Bactericidal activity against methicillin-resistant Staphylococcus aureus USA 3390 assessed as reduction in CFU at 1 times of MIC concentration measured after 24 hrs by time-kill kinetics assay; type: functional, organism-based
[31] = tested on: Staphylococcus aureus; assay: Bactericidal activity against methicillin-resistant Staphylococcus aureus USA 3390 assessed as reduction in CFU at 1 times of MIC concentration measured after 1 hrs by time-kill kinetics assay; type: functional, organism-based
[32] = tested on: Staphylococcus aureus; assay: Bactericidal activity against methicillin-resistant Staphylococcus aureus USA 3390 assessed as reduction in CFU at 4 times of MIC concentration measured after 24 hrs by time-kill kinetics assay; type: functional, organism-based
[33] = tested on: Cell membrane; assay: Induction of cell membrane damage in methicillin-resistant Staphylococcus aureus USA 3390 assessed as rough/shrunken and wrinkled surface at logarithmic growth phase at 4 times of MIC measured after 1 hr by Scanning electron micrographic analysis; type: cell membranes
[34] = tested on: Staphylococcus aureus; assay: In vivo antibacterial efficacy in bioluminescent Staphylococcus aureus Xen29 infected in mouse topical infection model assessed as decrease in fluorescence intensity at 8 mg/kg, sc treated 16, 24, 36, 48, […] hrs post-infection measured after 84 hrs; type: functional, organism-based
[35] = tested on: Staphylococcus aureus; assay: Bactericidal activity against methicillin-resistant Staphylococcus aureus USA 3390 assessed as reduction in CFU at 4 times of MIC concentration measured upto 1 hrs by time-kill kinetics assay; type: functional
[36] = tested on: Cell membrane; assay: Induction of cell membrane permeability in methicillin-resistant Staphylococcus aureus USA 3390 persisters assessed as increase in leakage (DNA) of 260 nm absorbing material at 1 to 8 times of MIC measured upto 5 hrs; type: cell membranes
[37] = tested on: Acinetobacter baumannii; assay: Antibacterial activity against Acinetobacter baumannii ATCC 1318 assessed as inhibition of bacterial growth measured after 18 hrs by microplate reader; type: functional; settings: read-out: MIC100

**Q.** With `Cc1cc(OC(=O)CCCCC[P+](c2ccccc2)(c2ccccc2)c2ccccc2)c(C(C)C)cc1-c1ccccc1.[Br-]` as the compound, how does the Activity [1] read?
**A.** The Activity was “Active”.

**Q.** And the Activity [2]?
**A.** Its Activity is “>=2 log10CFU/ml”.

**Q.** And the MIC [3]?
**A.** Its MIC is 32 µg/mL.

**Q.** And the “fold change (FC)” value [4]?
**A.** Its value is 10.

**Q.** What about the Activity [5] of the same compound?
**A.** Its Activity is “Active”.

**Q.** And the Activity [6]?
**A.** Its Activity is “Active”.

**Q.** What about the MIC [7] of the same compound?
**A.** The MIC was 8 µg/mL.

**Q.** And the Activity [8]?
**A.** The Activity was “Active”.

**Q.** What about the Activity [9] of the same compound?
**A.** The Activity was “Tde”.

**Q.** And the Activity [10]?
**A.** The Activity was “Dose-Dependent Effect”.

**Q.** And the Activity [11]?
**A.** The Activity was “Active”.

**Q.** And the MIC [12]?
**A.** Its MIC is 8 µg/mL.

**Q.** What about the MIC [13] of the same compound?
**A.** Its MIC is 64 µg/mL.

**Q.** And the Activity [14]?
**A.** The Activity was “Active”.

**Q.** And the Ratio [15]?
**A.** The Ratio was 4.

**Q.** And the IC50 at 72 h [16]?
**A.** The IC50 at 72 h was 34.3 µg/mL.

**Q.** What about the Activity [17] of the same compound?
**A.** The Activity was 99.999%.

**Q.** And the MIC [18]?
**A.** Its MIC is 8 µg/mL.

**Q.** And the MIC [19]?
**A.** Its MIC is 8 µg/mL.

**Q.** And the Activity [20]?
**A.** Its Activity is “Active”.

**Q.** What about the MIC [21] of the same compound?
**A.** The MIC was 16 µg/mL.

**Q.** And the Activity [22]?
**A.** Its Activity is “Active”.

**Q.** And the Activity [23]?
**A.** The Activity was “Active”.

**Q.** What about the Activity [24] of the same compound?
**A.** The Activity was “Active”.

**Q.** What about the Activity [25] of the same compound?
**A.** Its Activity is “Active”.

**Q.** And the Activity [26]?
**A.** Its Activity is “Active”.

**Q.** What about the Activity [27] of the same compound?
**A.** The Activity was “inactive”.

**Q.** What about the Activity [28] of the same compound?
**A.** Its Activity is 99.99%.

**Q.** What about the Activity [29] of the same compound?
**A.** The Activity was “Non-Toxic”.

**Q.** What about the Activity [30] of the same compound?
**A.** Its Activity is “Active”.

**Q.** And the Activity [31]?
**A.** Its Activity is “Active”.

**Q.** And the Activity [32]?
**A.** The Activity was “Active”.

**Q.** And the Activity [33]?
**A.** The Activity was “Active”.

**Q.** What about the Activity [34] of the same compound?
**A.** Its Activity is “Active”.

**Q.** And the Activity [35]?
**A.** The Activity was “>=2 log10CFU/ml”.

**Q.** What about the Activity [36] of the same compound?
**A.** Its Activity is “Active”.

**Q.** And the MIC [37]?
**A.** The MIC was 8 µg/mL.
